Measurements from US20230348419A1, “BIAMINOQUINOLINES AND NANOFORMULATIONS FOR CANCER TREATMENT” (The Regents of the University of California, priority 2019, published 2023).
Like-named read-outs stand apart in the source and are kept apart here. Each block holds one compound with its values, some of them ahead of it.

Experiments:
[1] = Drug loading using BAQ13 NPs; type: physicochemical; conditions: for PDI / Size/diameter: BAQ13 NPs loaded with the drug or dye; for Encapsulation efficiency / Drug-loading content: drug or dye loaded in BAQ13 NPs; for Drug-loading content: mass ratio
Method: Preparation and characterization of BAQ ONNs. NPs were prepared through the re-precipitation method. BAQ derivatives in methanol were added dropwise into MilliQ water while stirring for 5 min (volume ratio, 1:10), and then homogenous NPs were obtained after rotary evaporation (40° C., 20 min), followed by the characterization with Zetasizer Nano ZS (Malvern). The TEM samples were prepared by dropping 0.5 mM NPs on carbon square mesh and dried naturally, which were then observed under the Talos L120C TEM (FEI) at an accelerating voltage of 80 kV. To determine the drug content in nanoformulations, the prepared drug-loaded NPs were cut off by centrifugal filter (ultracel-10 kDa, Millipore), and the absorbance of filtrate (diluted with DMSO, 1:10, volume ratio) was measured for calculation of drug concentrations.
Next investigation was whether liposome-like BAQ ONNs can encapsulate additional agents. Upon nanoprecipitation of BAQ13 and various agents, homogeneous NPs with monomodal size distributions spontaneously formed (Table 2 and FIG. 9G).

[2] = test system: PCSC tumours; experiment: PCSC xenograft model; type: in vivo, NRG mice; conditions: combination therapy study, every three days
From the text: (§1) In vivo treatment schedule.

[3] = In vivo pharmacokinetic study; design: species or system Sprague-Dawley rats; conditions: rats, iv, DiD 0.5 mg kg^−1, plasma DiD fluorescence
Method: In vivo pharmacokinetic study. The jugular vein of female Sprague-Dawley rats (200-250 g) was implanted with a catheter for drug injection and blood collection (Harland, Indianapolis, IN, USA). Rats (n=3) were injected with free DiD, BAQ12 NPs@DiD (10:1, mass ratio) and BAQ13 NPs@DiD (10:1, mass ratio), respectively, which contained an equivalent dose of DiD (0.5 mg kg^−1). Blood samples were collected at the indicated time points and then were centrifuged to obtain the plasma. The plasma was diluted with DMSO (1:100), and the fluorescence intensity (λEx=595 nm, λEm=665 nm) was measured by a microplate reader (SpectraMax M2).

[4] = test system: HT29 tumours; experiment: In/ex vivo biodistribution, HT29 model; design: species or system nude mice; conditions: in vivo and ex vivo imaging, 12 h and 24 h post-injection
Method: In/ex vivo biodistribution. Nude mice bearing the HT29 tumours were subjected to iv administration of BAQ13 NPs@DiD (10:1, mass ratio) at a dose of 1.0 mg kg^−1 DiD. In vivo imaging studies were performed at the corresponding time point. Organs (brain, heart, lung, liver, spleen, kidney, intestines, and muscle) and tumours were collected from mice for ex vivo imaging. Biodistribution of BAQ13 NPs@ NAPA+DiD (10/2.5/1.0 mg kg^−1, iv) was studied on NRG mice bearing PCSC tumours. Both in vivo and ex vivo imaging studies were performed as above.

[5] = test system: OSC-3 cells; experiment: PBC NPs in OSC-3 cells (lysosomes, apoptosis, photodynamic therapy); type: cell-based; conditions: LC3-GFP-RFP imaging and immunoblotting
[6] = test system: Bone marrow cells; experiment: MTS cell viability assay; type: cell-based, FVB/N mice; conditions: 48 h, non-cancerous cells; read-out: IC50 values from the 48 h MTS assay (μM) Bone marrow
Method: (§2) Cell line and cell culture. The human pancreatic cancer cell lines (MIA PaCa-2, BXPC3, and PANC-1) were originally purchased from ATCC and were kindly provided by Dr. Shiro Urayama's Lab. HT29, HCT116, H460, MCF7, NIH/3T3, and IMR-90 cell lines were purchased from ATCC. Bone marrow cells were collected from the leg bone marrows of FVB/N mice. All the cells were cultured at 37° C. in a humidified atmosphere of 5% CO2/95% air using the corresponding medium supplemented with 10% fetal bovine serum, […] according to ATCC protocol. All the cell lines have been tested for mycoplasma contamination routinely.
Cell viability, cell growth and colony formation. Cell viability was assessed by the MTS assay. Briefly, cells in 96-well plates (4,000 cell per well) were treated as indicated, followed by the incubation with MTS regents for 4 h. OD values (490 nm) were determined via a microplate reader. Results were shown as the average cell viability calculated from the formula of [(ODtreat−ODblank)/(ODcontrol−ODblank)×100%]. Drug combination data were analyzed by Combenefit 2.02. In cell growth assay, cells in 6-well plates (50,000 cell per well) were treated as indicated and were counted manually every 24 h. Colony formation assay was also performed on 6-well plates with a starting density of 1,000-2,000 cells per well. […]

[7] = test system: MIA PaCa-2 cells; experiment: RNA sequencing, differentially expressed genes; type: cell-based, human; conditions: 5 μM, 24 h, vs vehicle
Method: RNA-seq. Total RNA was extracted by the RNeasy Mini Kit (Qiagen, Germany) from the treated MIA PaCa-2 cells (5 μM, 24 h). Samples were submitted to the UC Davis Comprehensive Cancer Center's Genomics Shared Resource (GSR) for RNA-Seq analysis. Stranded RNA-Seq libraries were prepared from 100 ng total RNA using the NEBNext Ultra Directional RNA Library Prep Kit (New England BioLabs). Subsequently, libraries were combined for multiplex sequencing on an Illumina HiSeq 4000 System (2×150 bp, paired-end, >20×10^6 reads per sample). The data of normalized genes read counts were analyzed using fold change and t test. The Differentially expressed genes (DEGs) were collected for the signaling pathways enrichment by Funrich software 3.1.3. The gene sets were from MSigDB database (Broad Institute). GSEA was performed using GSEA version 3.0 in KEGG gene sets category online, with the following parameters: n=1,000 permutations, where p-adjust <0.05, and FDR <0.05 were considered significant.

[8] = test system: HT29 tumours; experiment: HT29 xenograft model; conditions: mice bearing HT29 tumours, treatment terminated on the 24th day
Method: Animal model. To establish the subcutaneous xenograft models, 5×10^6 of MIA PaCa-2 cells, 2×10^6 of HT29 cells or 2×10^4 PCSCs suspended with Matrigel (Corning) and PBS mixture (1:1, volume ratio) were injected subcutaneously into the right flank of nude mice or NRG mice, respectively.
In vivo treatment schedule. The NRG mice bearing MIA PaCa-2 xenograft tumours (˜100 mm^3) were randomized into 5 groups (n=6), and then were subjected to iv injection every three days as indicated. […] The treatment on HT29 model was stopped on Day 24, and then the mice survival in each group was recorded, in which the mouse with a tumour larger than 1,000 mm^3 was considered dead. […] The tumour volume and body weight were recorded before drug administration every time. At the end of the treatment, mice were sacrificed and the tumours were collected for further analysis.

[9] = test system: BXPC-3; experiment: MTS cell viability assay; type: cell-based, human
Method: as §2
(§3) Cell viability, cell growth and colony formation. Cell viability was assessed by the MTS assay. Briefly, cells in 96-well plates (4,000 cell per well) were treated as indicated, followed by the incubation with MTS regents for 4 h. OD values (490 nm) were determined via a microplate reader. Results were shown as the average cell viability calculated from the formula of [(ODtreat−ODblank)/(ODcontrol−ODblank)×100%]. Drug combination data were analyzed by Combenefit 2.02. In cell growth assay, cells in 6-well plates (50,000 cell per well) were treated as indicated and were counted manually every 24 h. Colony formation assay was also performed on 6-well plates with a starting density of 1,000-2,000 cells per well. After incubated as indicated for 10-20 days, cells were washed with PBS and stained with the solution of crystal violet and methanol for 20 min.

[10] = test system: MIA PaCa-2; experiment: MTS cell viability assay; type: cell-based, human; conditions: 24 h; read-out: IC50 (μM) in the 24 h treatment MIA PaCa-2
Method: as §2, §3

[11] = test system: PANC-1; experiment: MTS cell viability assay; type: cell-based, human
Method: as §2, §3

[12] = test system: Red blood cells; experiment: pH-dependent haemolysis test; type: cell-based; conditions: whole pH range, same concentration (50 μM, 4 h)
Method: After centrifugation at 500×g for 5 min, the extent of haemolysis was spectrophotometrically determined according to the amount of haemoglobin in supernatants (540 nm). The haemolysis assay was used to assess the pH-dependent detergence ability and toxicity of NPs.

[13] = In vivo toxicity studies; design: species or system FVB/N mice; conditions: 10 mg kg^−1, iv
Method: In vivo toxicity studies. The toxicity of BAQ NPs was investigated on female FVB/N mice via iv injection. Mice were administrated with various concentrations (10 mg kg^−1, 20 mg kg^−1 or 40 mg kg^−1) of Lys05, Liposomes@Lys05, BAQ12 NPs, and BAQ13 NPs every two days. The status of mice was monitored every day and their body weight was recorded every two days. Blood samples were collected and sent to the UCD Comparative Pathology Laboratory for tests of complete blood count (CBC) and serum chemistry.

[14] = Titration with hydrochloric acid (pH buffering capacity); type: physicochemical; conditions: 1 mM, 0.1 M HCl
[15] = test system: IMR-90; experiment: MTS cell viability assay; type: cell-based; conditions: 48 h, non-cancerous cells; read-out: IC50 values from the 48 h MTS assay (μM) IMR-90
Method: as §2, §3

[16] = test system: MCF-7; experiment: MTS cell viability assay; type: cell-based; conditions: 24 h; read-out: IC50 (μM) in the 24 h treatment MCF-7
Method: as §2, §3

[17] = test system: HT29; experiment: MTS cell viability assay; type: cell-based; conditions: 24 h; read-out: IC50 (μM) in the 24 h treatment HT29
Method: as §2, §3

[18] = test system: NIH/3T3; experiment: MTS cell viability assay; type: cell-based; conditions: 48 h, non-cancerous cells; read-out: IC50 values from the 48 h MTS assay (μM) NIH/3T3
Method: as §2, §3

[19] = test system: HCT116; experiment: MTS cell viability assay; type: cell-based; conditions: 48 h; read-out: IC50 values from the 48 h MTS assay (μM) HCT116
Method: as §2, §3

[20] = test system: H460; experiment: MTS cell viability assay; type: cell-based; conditions: 24 h; read-out: IC50 (μM) in the 24 h treatment H460
Method: as §2, §3

[21] = test system: MIA PaCa-2 tumours; experiment: MIA PaCa-2 xenograft model; type: in vivo, NRG mice; conditions: 20 mg kg^−1 every three days
Method: as §1
Antitumour effect as single agents in mice. After proving the safety of BAQ ONNs, the NPs for anticancer efficacy was evaluated in a pancreatic xenograft model of MIA PaCa-2 cells. NRG mice with MIA PaCa-2 tumours (˜100 mm^3) were randomly assigned into five groups (n=6): the saline (iv) group, the Lys05 (ip) group, the liposomes@Lys05 (iv) group, the BAQ12 NPs (iv) group and the BAQ13 NPs (iv) group. The mice were then treated every three days at a dose of 20 mg kg^−1. […] These findings clearly illustrate the potential advantages of BAQ ONNs with regard to both drug discovery and drug delivery.

[22] = test system: autophagy (LC3B-II, SQSTM1/p62) in MIA PaCa-2 cells; experiment: Autophagy inhibition (immunoblot, LC3B-GFP imaging, TEM); type: cell-based, human; conditions: western blotting, compared to untreated and Lys05-treated cells
Method: LC3B-GFP imaging. Cells in a 96-well plate (5,000 cell per well) were transfected by the autophagy sensor LC3B-GFP (Thermo Fisher) for 12 h. After treated as indicated for 4 h, cells were visualized by a fluorescence microscope (Olympus). The puncta per well were quantified using ImageJ 1.51s.
Western Blot. The cell or tumour samples were lysed with RIPA Buffer (Thermo Fisher). After centrifugation at 4° C. (15 min, 12,000×g), the concentrations of proteins in supernatant and determined by Bradford Protein Assay dye (Bio-Rad). Immunoblotting was performed routinely and were developed using a ChemiDoc™ MP imaging system.
TEM of cells and tumour tissue. MIA PaCa-2 cells in 8-well slide plates (30,000 cell per well, Lab-Tek) were treated as indicated for 48 h. The freshly harvested tumours were cut into 1 mm^3 pieces. Samples were fixed with the 0.1 M cacodylate buffer containing 2.5% glutaraldehyde plus 2% paraformaldehyde, and transferred onto carbon square mesh, followed by observation under Talos L120C TEM.

PDI [1]: 0.101
Size/diameter [1]: 110 nm
Encapsulation efficiency [1]: 85%
Drug-loading content [1]: 20%
Compound: CC(=O)c1cc2c(o1)C(=O)c1ccccc1C2=O [Napabucasin]
tumour growth [2]: no antitumour effect

Compound: CCCCCCCCCCCCCCCCCCN1C(=CC=CC=CC2=[N+](CCCCCCCCCCCCCCCCCC)c3ccccc3C2(C)C)C(C)(C)c2ccccc21.[O-][Cl+3]([O-])([O-])[O-] [Free DiD, 1,1′-dioctadecyl-3,3,3′,3′-tetramethylindodicarbocyanine perchlorate]
PDI [1]: 0.1
Size/diameter [1]: 120 nm
Encapsulation efficiency [1]: 100%
Drug-loading content [1]: 50%
T1/2 [3]: 48 min
biodistribution of fluorescence signals [4]: high signals in the lungs, rather than in the tumour sites

Compound: pheophorbide a
induction of autophagy [5]: induced autophagy

Compound: CN(CCNc1ccnc2cc(Cl)ccc12)CCNc1ccnc2cc(Cl)ccc12 [Lys05]
IC50 [6]: 14 ± 1.1 µM
downregulated genes [7]: 103
upregulated genes [7]: 62
differentially expressed genes (DEGs) ([7]; fold change≥2 and p value≤0.05): 165
Median Survival [8]: 28 days
IC50 ([9]; 24 h, read-out: IC50 (μM) in the 24 h treatment BXPC-3): 7.8 ± 0.9 µM
IC50 ([9]; 48 h, read-out: IC50 values from the 48 h MTS assay (μM) BXPC-3): 11.1 ± 1.7 µM
IC50 [10]: 16.7 ± 4.7 µM
IC50 ([11]; 24 h, read-out: IC50 (μM) in the 24 h treatment PANC-1): 13.3 ± 2 µM
IC50 ([11]; 48 h, read-out: IC50 values from the 48 h MTS assay (μM) PANC-1): 10.8 ± 0.9 µM
haemolytic response to pH [12]: did not elicit observable haemolysis
mortality after iv administration [13]: acute death of mice
pH plateau upon titration with HCl [14]: 7.2
IC50 [15]: 15.5 ± 2.5 µM
IC50 [16]: 12.3 ± 0.7 µM
IC50 [17]: 10.6 ± 3.4 µM
IC50 [18]: 12.6 ± 0.9 µM
IC50 [19]: 8 ± 0.7 µM
IC50 [20]: 11.1 ± 0.6 µM
tumour growth [21]: did not display a therapeutic effect

Compound: CO/C1=C\C(C)=C\[C@@H](C)[C@@H](O)[C@@H](C)C/C(C)=C/C=C/[C@H](OC)[C@@H]([C@@H](C)[C@@H](O)[C@H](C)[C@@]2(O)C[C@@H](O)[C@H](C)[C@@H](C(C)C)O2)OC1=O [bafilomycin A1]
LC3B-II and SQSTM1/p62 protein levels [22]: Such increases were also observed
